Experimental data reported in ChEMBL document CHEMBL1201862, “PubChem BioAssay data set” (2004).
The source made the active and inactive calls.

How the values were obtained:
[1] = Vero cell cytotoxicity, cytotoxicity control for M. tuberculosis inhibitor project, purified and synthesized samples, set 8 (AID 602431); format: functional; conditions: Mycobacterium tuberculosis
[2] = THP-1 cell cytotoxicity, cytotoxicity control, set 6 (AID 602433); format: functional; conditions: Mycobacterium tuberculosis
CHO-K1 = test: (§1) Counterscreen for antagonists of the orexin 1 receptor (OX1R; HCRTR1): Homogeneous time resolved fluorescence (HTRF)-based cell-based dose response assay to identify antagonists of the parental CHO-K1 cell line. [Related pubchem assays (depositor defined):AID434989, AID435008, AID463079, AID485270, AID492963, AID492964, AID492965, AID493232, AID504699, AID504701]; format: functional; conditions: Cricetulus griseus
[3] = as §1, with “Fluorescence-based” for “Homogeneous time resolved fluorescence (HTRF)-based”, “cell-based high throughput” for “cell-based”, “CHO” for “CHO-K1”; format: functional
[4] = target: T1, Orexin/Hypocretin receptor type 1 (Homo sapiens, UniProt O43613); test: Homogeneous Time Resolved Fluorescence (HTRF)-based cell-based high throughput dose response assay for antagonists of the orexin 1 receptor (OX1R; HCRTR1). [Related pubchem assays (depositor defined):AID434989, AID435008, AID463079, AID485270, AID492963, AID492964, AID492965, AID493232, AID504717, AID504718]; format: functional
[5] = target: T1, Orexin/Hypocretin receptor type 1; test: Fluorescence-based cell-based high throughput dose response assay for antagonists of the orexin 1 receptor (OX1R; HCRTR1). [Related pubchem assays (depositor defined):AID434989, AID435008, AID463079, AID485270, AID492963, AID492964, AID492965, AID493232, AID504717, AID504718]; format: functional
Orexin receptor type 2 [6] = target: T2, Orexin receptor type 2 (Homo sapiens, UniProt O43614); test: Counterscreen assay for antagonists of the orexin 1 receptor (OX1R; HCRTR1): Fluorescence-based cell-based dose response assay for antagonists of the orexin 2 receptor (OX2R; HCRTR2), run by assay provider.; format: functional
Orexin receptor type 2 [7] = target: T2, Orexin receptor type 2; test: Counterscreen assay for antagonists of the orexin 1 receptor (OX1R; HCRTR1): Homogeneous Time Resolved Fluorescence (HTRF)-based cell-based dose response assay for antagonists of the orexin 2 receptor (OX2R; HCRTR2), run by assay provider.; format: functional
[8] = target: T3, Sentrin-specific protease 8 (Homo sapiens, UniProt Q96LD8); test: SENP8 protease inhibitors, SAR follow-up, biochemical, luminescence (AID 504501); format: functional
T3 sequence (Q96LD8 whole entry): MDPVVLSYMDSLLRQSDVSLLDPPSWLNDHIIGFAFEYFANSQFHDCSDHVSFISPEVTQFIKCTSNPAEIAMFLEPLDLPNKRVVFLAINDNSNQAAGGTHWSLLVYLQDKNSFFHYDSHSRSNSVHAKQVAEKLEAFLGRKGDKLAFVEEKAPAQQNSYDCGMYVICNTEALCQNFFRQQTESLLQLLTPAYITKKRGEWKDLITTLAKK

Caspase-3 = target: T4, Caspase-3 (Homo sapiens, UniProt P42574); test: SAR Analysis of small molecule inhibitors of Sentrin-specific proteases (SENPs) using a Caspase-3 Selectivity assay. [Related pubchem assays (depositor defined):AID2540, AID2599, AID434973, AID489001]; format: functional
T4 sequence (P42574 whole entry): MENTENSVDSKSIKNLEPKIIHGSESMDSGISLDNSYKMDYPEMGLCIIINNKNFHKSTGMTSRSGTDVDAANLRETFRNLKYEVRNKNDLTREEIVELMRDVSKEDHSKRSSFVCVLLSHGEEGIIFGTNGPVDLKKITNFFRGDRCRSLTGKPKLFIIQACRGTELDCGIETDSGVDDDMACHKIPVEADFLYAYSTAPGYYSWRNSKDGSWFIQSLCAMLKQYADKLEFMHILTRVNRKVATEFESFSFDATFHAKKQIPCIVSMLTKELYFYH

[9] = target: T5, Sentrin-specific protease 6 (Homo sapiens, UniProt Q9GZR1); test: SAR Analysis of small molecule inhibitors of Sentrin-specific protease 6 (SENP6) using a Luminescent assay. [Related pubchem assays (depositor defined):AID2582, AID2599]; format: functional
T5 sequence (Q9GZR1 whole entry): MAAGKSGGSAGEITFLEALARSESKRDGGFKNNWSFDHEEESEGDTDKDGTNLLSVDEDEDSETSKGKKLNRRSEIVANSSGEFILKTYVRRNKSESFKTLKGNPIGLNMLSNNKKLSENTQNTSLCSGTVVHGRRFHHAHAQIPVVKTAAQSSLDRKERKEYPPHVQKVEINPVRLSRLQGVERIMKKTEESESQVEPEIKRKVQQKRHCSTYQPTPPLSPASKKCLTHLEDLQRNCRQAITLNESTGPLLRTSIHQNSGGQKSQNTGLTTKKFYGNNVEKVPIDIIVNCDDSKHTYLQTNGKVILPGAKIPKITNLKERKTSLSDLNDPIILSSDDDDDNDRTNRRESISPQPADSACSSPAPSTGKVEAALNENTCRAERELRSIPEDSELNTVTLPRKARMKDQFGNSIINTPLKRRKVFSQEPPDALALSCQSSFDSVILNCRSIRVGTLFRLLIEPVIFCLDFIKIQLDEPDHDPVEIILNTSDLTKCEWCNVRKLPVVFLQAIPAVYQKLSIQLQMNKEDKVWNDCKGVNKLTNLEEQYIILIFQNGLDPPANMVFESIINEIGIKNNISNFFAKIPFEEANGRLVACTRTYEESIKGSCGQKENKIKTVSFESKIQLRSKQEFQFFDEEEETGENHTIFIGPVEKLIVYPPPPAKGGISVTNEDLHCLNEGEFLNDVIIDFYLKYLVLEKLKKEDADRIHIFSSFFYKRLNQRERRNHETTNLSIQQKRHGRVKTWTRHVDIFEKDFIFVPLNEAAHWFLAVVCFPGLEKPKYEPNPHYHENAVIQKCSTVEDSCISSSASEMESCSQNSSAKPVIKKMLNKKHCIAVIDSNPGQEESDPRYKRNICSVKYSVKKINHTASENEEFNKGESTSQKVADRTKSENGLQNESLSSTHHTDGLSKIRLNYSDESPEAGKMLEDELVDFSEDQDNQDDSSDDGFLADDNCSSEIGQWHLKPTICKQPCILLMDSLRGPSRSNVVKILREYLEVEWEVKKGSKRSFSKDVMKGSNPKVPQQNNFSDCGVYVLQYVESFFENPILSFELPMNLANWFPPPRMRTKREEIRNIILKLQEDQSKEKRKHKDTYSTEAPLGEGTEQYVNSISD

[10] = target: T6, Sentrin-specific protease 7 (Homo sapiens, UniProt Q9BQF6); test: SENP7 protease inhibitors, SAR follow-up, biochemical, luminescence (AID 504497); format: functional
T6 sequence (Q9BQF6 whole entry): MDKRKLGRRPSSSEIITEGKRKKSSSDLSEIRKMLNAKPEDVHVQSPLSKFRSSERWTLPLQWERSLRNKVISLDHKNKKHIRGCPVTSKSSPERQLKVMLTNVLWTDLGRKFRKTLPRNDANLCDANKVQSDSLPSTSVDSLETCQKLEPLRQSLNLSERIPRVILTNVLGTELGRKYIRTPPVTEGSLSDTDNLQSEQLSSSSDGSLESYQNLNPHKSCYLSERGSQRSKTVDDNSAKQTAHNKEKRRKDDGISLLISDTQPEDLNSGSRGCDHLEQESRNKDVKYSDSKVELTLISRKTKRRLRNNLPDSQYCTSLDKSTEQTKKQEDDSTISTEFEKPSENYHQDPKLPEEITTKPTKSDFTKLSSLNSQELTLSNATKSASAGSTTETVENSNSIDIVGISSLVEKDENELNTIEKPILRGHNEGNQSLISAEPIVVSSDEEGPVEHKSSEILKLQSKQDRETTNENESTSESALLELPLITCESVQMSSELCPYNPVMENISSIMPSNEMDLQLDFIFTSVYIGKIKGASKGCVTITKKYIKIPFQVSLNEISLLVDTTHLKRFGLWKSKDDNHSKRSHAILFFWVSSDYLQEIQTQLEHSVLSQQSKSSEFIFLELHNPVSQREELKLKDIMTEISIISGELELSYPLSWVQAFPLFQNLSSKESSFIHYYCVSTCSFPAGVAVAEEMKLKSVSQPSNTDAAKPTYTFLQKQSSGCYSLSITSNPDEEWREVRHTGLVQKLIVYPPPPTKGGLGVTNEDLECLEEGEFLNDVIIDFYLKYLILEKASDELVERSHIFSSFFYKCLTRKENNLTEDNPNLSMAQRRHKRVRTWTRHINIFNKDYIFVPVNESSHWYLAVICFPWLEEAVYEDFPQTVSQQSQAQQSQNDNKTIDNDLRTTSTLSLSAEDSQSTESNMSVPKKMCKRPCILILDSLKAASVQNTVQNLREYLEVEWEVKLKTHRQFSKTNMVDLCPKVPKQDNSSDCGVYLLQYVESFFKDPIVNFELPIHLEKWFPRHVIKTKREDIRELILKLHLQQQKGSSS

CHO = test: cytotoxicity in TLR9-MyD88 CHO cells, dose response, cytotoxicity control for TLR9-MyD88 binding inhibitor project, cell-based, luminescence (AID 588339); format: functional, hamster; conditions: Cricetulus griseus;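 also: CHO cells stably coexpressing TLR9 and MyD88 fusions from primary screen; compound exposure lasted 48 hours before viability readout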
Beta Lactamase = Beta Lactamase (Pseudomonas aeruginosa, UniProt Q932Y6); test: beta-lactamase reporter inhibitor potency, dose response, artefact control for TLR9-MyD88 binding inhibitor project, BLA reporter cells, FRET fluorescence (AID 588341); format: cell-based;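 also: cell based assay in CHO-K1 cells stably expressing beta-lactamase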
Beta Lactamase, sequence (Q932Y6 whole entry): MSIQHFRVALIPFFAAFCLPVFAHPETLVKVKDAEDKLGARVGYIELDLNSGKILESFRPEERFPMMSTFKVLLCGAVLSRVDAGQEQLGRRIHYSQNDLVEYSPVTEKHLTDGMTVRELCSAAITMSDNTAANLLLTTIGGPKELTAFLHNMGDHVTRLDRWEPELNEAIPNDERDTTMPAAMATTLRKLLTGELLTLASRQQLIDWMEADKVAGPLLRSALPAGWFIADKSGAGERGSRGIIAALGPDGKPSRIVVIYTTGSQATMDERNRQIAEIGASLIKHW

T1 sequence (O43613 whole entry): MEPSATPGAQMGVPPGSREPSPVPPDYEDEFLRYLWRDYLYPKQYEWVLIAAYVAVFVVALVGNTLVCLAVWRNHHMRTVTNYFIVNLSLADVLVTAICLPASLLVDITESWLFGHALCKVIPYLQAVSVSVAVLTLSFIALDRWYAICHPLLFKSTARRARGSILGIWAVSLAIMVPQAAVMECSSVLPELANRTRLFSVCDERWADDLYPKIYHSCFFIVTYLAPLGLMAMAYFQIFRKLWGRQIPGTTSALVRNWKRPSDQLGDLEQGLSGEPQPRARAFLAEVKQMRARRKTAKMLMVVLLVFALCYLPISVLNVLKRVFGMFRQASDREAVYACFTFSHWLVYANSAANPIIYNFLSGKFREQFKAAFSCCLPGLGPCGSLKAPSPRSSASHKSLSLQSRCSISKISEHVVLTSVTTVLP
T2 sequence (O43614 whole entry): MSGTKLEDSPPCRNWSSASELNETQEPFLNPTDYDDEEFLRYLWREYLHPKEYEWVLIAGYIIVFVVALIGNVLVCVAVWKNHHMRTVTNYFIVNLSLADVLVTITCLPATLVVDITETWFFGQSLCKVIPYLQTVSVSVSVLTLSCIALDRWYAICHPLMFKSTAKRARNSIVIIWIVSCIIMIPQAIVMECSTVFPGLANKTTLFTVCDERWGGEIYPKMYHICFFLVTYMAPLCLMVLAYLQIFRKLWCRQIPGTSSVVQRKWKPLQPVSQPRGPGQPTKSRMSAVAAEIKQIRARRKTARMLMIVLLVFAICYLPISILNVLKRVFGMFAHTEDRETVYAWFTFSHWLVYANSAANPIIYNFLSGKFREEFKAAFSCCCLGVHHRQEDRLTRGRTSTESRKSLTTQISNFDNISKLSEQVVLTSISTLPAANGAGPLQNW

For `CC1CCCN(c2c(NCc3ccc(C(=O)N4CC=C(c5ccccc5)CC4)cc3)c(=O)c2=O)C1` (centres undefined), the CC50 [1] was 67.2 µM (active) and the CC50 [2] was 17.4 µM (active).
In the case of `CCOc1ccccc1N1CCN(C(=O)c2ccc(S(=O)(=O)Nc3ccccc3)cc2)CC1`, the IC50 (CHO-K1) is reported as > 66.2 µM (inactive), the IC50 [3] is reported as 25.6 µM (inactive) and the IC50 [4] is reported as 1.12 µM (active). The IC50 [5] was 15.1 µM (inactive), the IC50 (Orexin receptor type 2 [6]) was 42.5 µM (inactive) and the IC50 (Orexin receptor type 2 [7]) was > 50 µM (inactive).
For `Oc1ccc(Cl)cc1/C=N/Nc1cc(N2CCCC2)nc(N2CCCC2)n1`, the IC50 [8] was > 99 µM (inactive), the IC50 (Caspase-3) was > 99 µM (inactive) and the IC50 [9] was > 99 µM (inactive). For the same compound, the IC50 [10] was > 99 µM (inactive).
For `CCN(CC)c1ccc(/C=C/C(=O)C2C(=O)C=C(C)OC2=O)cc1` (centres undefined), the IC50 (CHO) was > 49.7 µM (inactive) and the IC50 (Beta Lactamase) was 4.88 µM (active).
